In patent publication US20080279819A1, “Combinations Therapy for Treatment of Demyelinating Conditions” (Adamas Pharmaceuticals, Inc., priority 2005, published 2008):

What was measured:
[1] = Release profile of memantine and atorvastatin combination (cumulative fraction released); format: physicochemical; settings: released from formulation matrix, USP II Paddle, water
From the text: The cumulative fraction is the amount of drug substance released from the formulation matrix to the serum or gut environment (e.g., U.S. Pat. No. 4,839,177) or as measured with a USP II Paddle system using water as the dissolution medium.

[2] = five doses at about 0.25 to about 1 mg/kg intravenous, 14 day interval; cited from earlier work

Row | cum. fraction ([1]; Time 1) | cum. fraction ([1]; Time 2) | cum. fraction ([1]; Time 4) | cum. fraction ([1]; Time 8) | cum. fraction ([1]; Time 12) | cum. fraction ([1]; Time 16) | cum. fraction ([1]; Time 20) | cum. fraction ([1]; Time 24) | Compound | Peak serum concentrations [2] [µg/mL]
1 | 0.15 | 0.30 | 0.45 | 0.60 | 0.75 | 0.90 | 0.98 | 0.99 | CC(C)c1c(C(=O)Nc2ccccc2)c(-c2ccccc2)c(-c2ccc(F)cc2)n1CC[C@@H](O)C[C@@H](O)CC(=O)O [ATORVASTATIN, atorvastatin] | –
2 | – | – | – | – | – | – | – | – | daclizumab: multiple sclerosis agent daclizumab (ZENAPAX), given intravenously | 21 to 32
